The structures appear in SMILES notation.

In this assay the target is human APJ receptor (Homo sapiens (Human), UniProt P35414). The experiment in a line: [35S]GTPγS binding assay on membranes from CHO cells stably expressing human APJ receptor. Type of assay: biochemical. The conditions noted are these: read-out: Activity hAPJ SPA EC50 IP. As for the experimental part: [^35S]GTPγS Binding The human APJ receptor was cloned by polymerase chain reaction and the gene encoding the receptor was subcloned in pFLAG-CMV™-3 expression vector (Sigma, Saint Louis, Mo. USA) in-house at Amgen. A GTPγS binding assay was performed on membranes prepared from CHO cells stably expressing human APJ receptor. The optimum experimental conditions for the concentrations of GDP, MgCl2, and NaCl in the assay buffer were initially determined. […] Incubation was at RT for 90 min and the microplate was read using a ViewLux™ ultra HTS Microplate Imager (PerkinElmer, Inc.). All the results presented are means of several independent experiments and analyzed by non-linear regression methods using the commercially available program Prism (GraphPad, San Diego, Calif.) providing the EC50 values detailed in Table 13.
Sequence of human APJ receptor (P35414 whole entry): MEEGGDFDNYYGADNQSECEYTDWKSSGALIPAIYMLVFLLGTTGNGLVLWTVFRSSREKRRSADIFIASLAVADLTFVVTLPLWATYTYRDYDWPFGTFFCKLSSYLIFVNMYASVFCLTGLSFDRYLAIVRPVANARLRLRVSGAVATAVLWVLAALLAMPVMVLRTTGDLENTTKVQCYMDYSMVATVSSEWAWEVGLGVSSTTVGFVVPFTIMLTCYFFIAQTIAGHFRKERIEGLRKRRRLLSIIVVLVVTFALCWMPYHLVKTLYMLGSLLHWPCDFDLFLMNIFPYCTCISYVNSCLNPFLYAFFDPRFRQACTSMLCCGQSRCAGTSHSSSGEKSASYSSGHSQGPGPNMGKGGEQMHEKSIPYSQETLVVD
In general terms: Binding of GTPγS marks nucleotide exchange on a G protein.
For orientation: EC50 means the concentration at which the effect is half-maximal. With `COC[C@@H]1COc2ccc(OC)nc2-c2nnc(NS(=O)(=O)[C@@H](C)[C@H](C)c3ncc(C)cn3)n21` (single isomer, unassigned) [Example 13.0, (2S,3R)-N-((5R)-10-methoxy-5-(methoxymethyl)-5,6-dihydropyrido[2,3-f][1,2,4]triazolo[4,3-d][1,4]oxazepin-3-yl)-3-(5-methyl-2-pyrimidinyl)-2-butanesulfonamide or (2S,3R)-N-((5S)-10-methoxy-5-(methoxymethyl)-5,6-dihydropyrido[2,3-f][1,2,4]traizolo[4,3-d][1,4]oxazepin-3-yl)-3-(5-methyl-2-pyrimidinyl)-2-butanesulfonamide], the EC50 was 370 nM.

As for `COC[C@@H]1COc2ccc(OC)nc2-c2nnc(NS(=O)(=O)[C@@H](C)[C@@H](OC(C)C)c3ncc(C)cn3)n21` (single isomer, unassigned) [Example 14.0, (1S,2S)-N-((5R)-10-methoxy-5-(methoxymethyl)-5,6-dihydropyrido[2,3-1][1,2,4]triazolo[4,3-d][1,4]oxazepin-3-yl)-1-(5-methyl-2-pyrimidinyl)-1-(2-propanyloxy)-2-propanesulfonamide or (1S,2S)-N-((5S)-10-methoxy-5-(methoxymethyl)-5,6-dihydropyrido[2,3-1][1,2,4]triazolo[4,3-d][1,4]oxazepin-3-yl)-1-(5-methyl-2-pyrimidinyl)-1-(2-propanyloxy)-2-propanesulfonamide], the EC50 was 400 nM. The result for `COC[C@@H]1COc2ccc(OC)nc2-c2nnc(NS(=O)(=O)[C@@H](C)[C@@H](OC(C)C)c3ncc(C)cn3)n21` (single isomer, unassigned) [Example 15.0, (1S,2S)-N-((5R)-10-methoxy-5-(methoxymethyl)-5,6-dihydropyrido[2,3-f][1,2,4]triazolo[4,3-d][1,4]oxazepin-3-yl)-1-(5-methyl-2-pyrimidinyl)-1-(2-propanyloxy)-2-propanesulfonamide or (1S,2S)-N-((5S)-10-methoxy-5-(methoxymethyl)-5,6-dihydropyrido[2,3-f][1,2,4]triazolo[4,3-d][1,4]oxazepin-3-yl)-1-(5-methyl-2-pyrimidinyl)-1-(2-propanyloxy)-2-propanesulfonamide] reads 37 nM.

On to `COc1ccc2c(n1)-c1nnc(NS(=O)(=O)[C@@H](C)[C@@H](OC(C)C)c3ncc(C)cn3)n1[C@H](CO)CO2` (single isomer, unassigned) [Example 18.0, (1S,2S)-N-((R)-5-(hydroxymethyl)-10-methoxy-5,6-dihydropyrido[2,3-f][1,2,4]triazolo[4,3-d][1,4]oxazepin-3-yl)-1-isopropoxy-1-(5-methylpyrimidin-2-yl)propane-2-sulfonamide or (1S,2S)-N-((S)-5-(hydroxymethyl)-10-methoxy-5,6-dihydropyrido[2,3-f][1,2,4]traizolo[4,3-d][1,4]oxazepin-3-yl)-1-isopropoxy-1-(5-methylpyrimidin-2-yl)propane-2-sulfonamide], for which the EC50 is 640 nM. Turning to `COc1ccc2c(n1)-c1nnc(NS(=O)(=O)[C@@H](C)[C@@H](OC(C)C)c3ncc(C)cn3)n1[C@H](CO)CO2` (single isomer, unassigned) [Example 19.0, (1S,2S)-N-((R)-5-(hydroxymethyl)-10-methoxy-5,6-dihydropyrido[2,3-f][1,2,4]triazolo[4,3-d][1,4]oxazepin-3-yl)-1-isopropoxy-1-(5-methylpyrimidin-2-yl)propane-2-sulfonamide or (1S,2S)-N-((S)-5-(hydroxymethyl)-10-methoxy-5,6-dihydropyrido[2,3-f][1,2,4]triazolo[4,3-d][1,4]oxazepin-3-yl)-1-isopropoxy-1-(5-methylpyrimidin-2-yl)propane-2-sulfonamide], the EC50 was determined as 990 nM. The result for `COC[C@@H]1COc2cc(F)c(F)cc2-c2nnc(NS(=O)(=O)[C@@H](C)[C@@H](OC(C)C)c3ncc(C)cn3)n21` (single isomer, unassigned) [Example 20.0, (1S,2S)-N-((5R)-9,10-difluoro-5-(methoxymethyl)-5,6-dihydro[1,2,4]triazolo[4,3-d][1,4]benzoxazepin-3-yl)-1-(5-methyl-2-pyrimidinyl)-1-(2-propanyloxy)-2-propanesulfonamide or (1S,2S)-N-((5S)-9,10-difluoro-5-(methoxymethyl)-5,6-dihydro[1,2,4]triazolo[4,3-d][1,4]benzoxazepin-3-yl)-1-(5-methyl-2-pyrimidinyl)-1-(2-propanyloxy)-2-propanesulfonamide] reads 990 nM; that for `COC[C@@H]1COc2cc(F)c(F)cc2-c2nnc(NS(=O)(=O)[C@@H](C)[C@@H](OC(C)C)c3ncc(C)cn3)n21` (single isomer, unassigned) [Example 21.0, (1S,2S)-N-((5R)-9,10-difluoro-5-(methoxymethyl)-5,6-dihydro[1,2,4]triazolo[4,3-d][1,4]benzoxazepin-3-yl)-1-(5-methyl-2-pyrimidinyl)-1-(2-propanyloxy)-2-propanesulfonamide or (1S,2S)-N-((5S)-9,10-difluoro-5-(methoxymethyl)-5,6-dihydro[1,2,4]triazolo[4,3-d][1,4]benzoxazepin-3-yl)-1-(5-methyl-2-pyrimidinyl)-1-(2-propanyloxy)-2-propanesulfonamide], 3400 nM. The result for `COC[C@@H]1COc2ccc(F)cc2-c2nnc(NS(=O)(=O)[C@@H](C)[C@@H](OC(C)C)c3ncc(C)cn3)n21` (single isomer, unassigned) [Example 25.0, (1S,2S)-N-((5R)-10-fluoro-5-(methoxymethyl)-5,6-dihydro[1,2,4]traizolo[4,3-d][1,4]benzoxazepin-3-yl)-1-(5-methyl-2-pyrimidinyl)-1-(2-propanyloxy)-2-propanesulfonamide or (1S,2S)-N-((5S)-10-fluoro-5-(methoxymethyl)-5,6-dihydro[1,2,4]traizolo[4,3-d][1,4]benzoxazepin-3-yl)-1-(5-methyl-2-pyrimidinyl)-1-(2-propanyloxy)-2-propanesulfonamide] reads 28 nM. Turning to `COC[C@@H]1COc2ccc(F)cc2-c2nnc(NS(=O)(=O)[C@@H](C)[C@@H](OC(C)C)c3ncc(C)cn3)n21` (single isomer, unassigned) [Example 26.0, (1S,2S)-N-((5R)-10-fluoro-5-(methoxymethyl)-5,6-dihydro[1,2,4]triazolo[4,3-d][1,4]benzoxazepin-3-yl)-1-(5-methyl-2-pyrimidinyl)-1-(2-propanyloxy)-2-propanesulfonamide or (1S,2S)-N-((5S)-10-fluoro-5-(methoxymethyl)-5,6-dihydro[1,2,4]triazolo[4,3-d][1,4]benzoxazepin-3-yl)-1-(5-methyl-2-pyrimidinyl)-1-(2-propanyloxy)-2-propanesulfonamide], the EC50 stood at 460 nM. To `COC[C@@H]1COc2ccc(F)cc2-c2nnc(NS(=O)(=O)[C@@H](C)[C@H](OC)c3ncc(C)cn3)n21` (single isomer, unassigned) [Example 27.0, (1R,2S)-N-((5R)-10-fluoro-5-(methoxymethyl)-5,6-dihydro[1,2,4]triazolo[4,3-d][1,4]benzoxazepin-3-yl)-1-methoxy-1-(5-methyl-2-pyrimidinyl)-2-propanesulfonamide or (1R,2S)-N-((5S)-10-fluoro-5-(methoxymethyl)-5,6-dihydro[1,2,4]triazolo[4,3-d][1,4]benzoxazepin-3-yl)-1-methoxy-1-(5-methyl-2-pyrimidinyl)-2-propanesulfonamide] belongs 490 nM; to `COC[C@@H]1COc2ccc(F)cc2-c2nnc(NS(=O)(=O)[C@@H](C)[C@H](OC)c3ncc(C)cn3)n21` (single isomer, unassigned) [Example 28.0, (1R,2S)-N-((5R)-10-fluoro-5-(methoxymethyl)-5,6-dihydro[1,2,4]triazolo[4,3-d][1,4]benzoxazepin-3-yl)-1-methoxy-1-(5-methyl-2-pyrimidinyl)-2-propanesulfonamide or (1R,2S)-N-((5S)-10-fluoro-5-(methoxymethyl)-5,6-dihydro[1,2,4]triazolo[4,3-d][1,4]benzoxazepin-3-yl)-1-methoxy-1-(5-methyl-2-pyrimidinyl)-2-propanesulfonamide], 170 nM. For `COC[C@@H]1COc2ncccc2-c2nnc(NS(=O)(=O)CCc3ncc(C)cn3)n21` (single isomer, unassigned) [Example 34.0, N-((5R)-5-(methoxymethyl)-5,6-dihydropyrido[3,2-f][1,2,4]triazolo[4,3-d][1,4]oxazepin-3-yl)-2-(5-methyl-2-pyrimidinyl)ethanesulfonamide or N-((5S)-5-(methoxymethyl)-5,6-dihydropyrido[3,2-f][1,2,4]triazolo[4,3-d][1,4]oxazepin-3-yl)-2-(5-methyl-2-pyrimidinyl)ethanesulfonamide], the half-maximal effective concentration (EC50) was found to be 180 nM. The result for `COC[C@@H]1COc2c(OC)cccc2-c2nnc(NS(=O)(=O)[C@@H](C)[C@@H](OC(C)C)c3ncc(C)cn3)n21` (single isomer, unassigned) [Example 38.0, (1S,2S)-N-((5R)-8-methoxy-5-(methoxymethyl)-5,6-dihydro[1,2,4]traizolo[4,3-d][1,4]benzoxazepin-3-yl)-1-(5-methyl-2-pyrimidinyl)-1-(2-propanyloxy)-2-propanesulfonamide or (1S,2S)-N-((5S)-8-methoxy-5-(methoxymethyl)-5,6-dihydro[1,2,4]triazolo[4,3-d][1,4]benzoxazepin-3-yl)-1-(5-methyl-2-pyrimidinyl)-1-(2-propanyloxy)-2-propanesulfonamide] reads 64 nM.

The values are drawn from US11149040B2, “Fused triazole agonists of the APJ receptor” (AMGEN INC., priority 2017, dated 2021).
